Measured values reported in patent US12577206B2 (BRISTOL-MYERS SQUIBB COMPANY, priority 2020, dated 2026).

Legend:
human FPR2 = biological target: T1, human FPR2 (Homo sapiens, UniProt P25090); assay: FPR2 cyclic adenosine monophosphate (cAMP) assay; type: cell-based; details: CHO cells overexpressing human FPR2; forskolin 5 μM; inhibition of cAMP production; HTRF; read-out: hFPR2 cAMP2 EC50
T1 sequence (P25090 1-351): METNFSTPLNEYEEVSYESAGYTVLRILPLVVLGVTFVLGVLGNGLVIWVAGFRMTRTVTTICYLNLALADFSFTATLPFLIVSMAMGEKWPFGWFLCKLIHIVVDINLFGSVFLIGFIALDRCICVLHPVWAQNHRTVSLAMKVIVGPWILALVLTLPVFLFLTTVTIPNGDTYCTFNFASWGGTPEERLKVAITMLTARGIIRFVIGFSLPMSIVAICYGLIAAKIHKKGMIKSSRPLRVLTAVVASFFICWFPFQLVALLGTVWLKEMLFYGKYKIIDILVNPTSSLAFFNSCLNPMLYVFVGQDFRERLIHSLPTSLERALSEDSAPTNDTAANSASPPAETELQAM
Outline: (§1)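 Inhibition of forskolin-stimulated cAMP (final forskolin 5 μM for FPR2, 10 μM for FPR1; IBMX 200 μM) was measured by HTRF in recombinant CHO cells after 30 min at room temperature.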

human FPR1 = biological target: T2, human FPR1 (Homo sapiens, UniProt P21462); assay: FPR1 cyclic adenosine monophosphate (cAMP) assay; type: cell-based; details: CHO cells overexpressing human FPR1; forskolin 10 μM; inhibition of cAMP production; HTRF; read-out: hFPR1 cAMP2 EC50
T2 sequence (P21462 1-350): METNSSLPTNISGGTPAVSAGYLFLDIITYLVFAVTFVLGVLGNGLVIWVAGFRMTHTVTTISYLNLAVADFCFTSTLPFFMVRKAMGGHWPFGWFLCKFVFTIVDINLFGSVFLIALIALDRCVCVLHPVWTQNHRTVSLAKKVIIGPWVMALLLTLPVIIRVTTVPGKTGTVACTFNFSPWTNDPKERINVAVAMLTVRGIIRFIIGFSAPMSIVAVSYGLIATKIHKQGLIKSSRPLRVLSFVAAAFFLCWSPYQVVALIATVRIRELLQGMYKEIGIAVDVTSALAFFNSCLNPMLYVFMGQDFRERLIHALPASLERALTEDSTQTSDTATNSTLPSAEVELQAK
Outline: as §1

SMILES	EC50 (human FPR2)	EC50 (human FPR1)
COc1cc(F)c(-c2c(NC(=O)c3ccc(OC(F)F)cc3)c(=O)n(-c3nc(N4CCN(C)C(=O)C4)ccc3C(F)(F)F)n2C)c(F)c1 [Example 220, N-[5-(2,6-difluoro-4-methoxyphenyl)-1-methyl-2-[6-(4-methyl-3-oxopiperazin-1-yl)-3-(trifluoromethyl)pyridin-2-yl]-3-oxo-2,3-dihydro-1H-pyrazol-4-yl]-4-(difluoromethoxy)benzamide]	2 nM	560 nM
COc1ccc(-c2c(NC(=O)c3ccc(OC(F)F)cc3)c(=O)n(-c3ncccc3C(F)(F)F)n2C)cc1Cl [Example 221, N-(5-(3-chloro-4-methoxyphenyl)-1-methyl-3-oxo-2-(3-(trifluoromethyl)pyridin-2-yl)-2,3-dihydro-1H-pyrazol-4-yl)-4-(difluoromethoxy)benzamide]	141 nM	> 5000 nM
COc1cc(F)c(-c2c(NC(=O)c3ccc(OC(F)F)cc3)c(=O)n(-c3nc(Cl)ccc3C(F)(F)F)n2C)c(F)c1 [Example 222, N-{2-[6-chloro-3-(trifluoromethyl)pyridin-2-yl]-5-(2,6-difluoro-4-methoxyphenyl)-1-methyl-3-oxo-2,3-dihydro-1H-pyrazol-4-yl}-4-(difluoromethoxy)benzamide]	5 nM	> 10000 nM
Cn1ncc2cc(-c3c(NC(=O)c4ccc(OC(F)F)cc4)c(=O)n(-c4ncccc4C(F)(F)F)n3C)ccc21 [Example 223, 4-(difluoromethoxy)-N-(1-methyl-5-(1-methyl-1H-indazol-5-yl)-3-oxo-2-(3-(trifluoromethyl)pyridin-2-yl)-2,3-dihydro-1H-pyrazol-4-yl)benzamide]	166 nM	> 5000 nM
COc1cc(F)c(-c2c(NC(=O)c3ccc(OC(F)F)cc3)c(=O)n(-c3nccc(N4CCN(C)CC4)c3C(F)(F)F)n2C)c(F)c1 [Example 224, N-[5-(2,6-difluoro-4-methoxyphenyl)-1-methyl-2-[4-(4-methylpiperazin-1-yl)-3-(trifluoromethyl)pyridin-2-yl]-3-oxo-2,3-dihydro-1H-pyrazol-4-yl]-4-(difluoromethoxy)benzamide]	15 nM	> 5000 nM
COc1cc(F)c(-c2c(NC(=O)c3ccc(OC(F)F)cc3)c(=O)n(-c3nc(NCC(N)=O)ccc3C(F)(F)F)n2C)c(F)c1 [Example 226, N-(2-{6-[(carbamoylmethyl)amino]-3-(trifluoromethyl)pyridin-2-yl}-5-(2,6-difluoro-4-methoxyphenyl)-1-methyl-3-oxo-2,3-dihydro-1H-pyrazol-4-yl)-4-(difluoromethoxy)benzamide]	13 nM	> 10000 nM
COc1cc(F)c(-c2c(NC(=O)c3ccc(OC(F)F)cc3)c(=O)n(-c3nc(Nc4cn(C)nc4C)ccc3C(F)(F)F)n2C)c(F)c1 [Example 228, N-[5-(2,6-difluoro-4-methoxyphenyl)-2-{6-[(1,3-dimethyl-1H-pyrazol-4-yl)amino]-3-(trifluoromethyl)pyridin-2-yl}-1-methyl-3-oxo-2,3-dihydro-1H-pyrazol-4-yl]-4-(difluoromethoxy)benzamide]	1 nM	> 5000 nM
COc1cc(F)c(-c2c(NC(=O)c3ccc(OC(F)F)cc3)c(=O)n(-c3nc(NCC(=O)NC4CC4)ccc3C(F)(F)F)n2C)c(F)c1 [Example 229, N-[2-(6-{[(cyclopropylcarbamoyl)methy]amino}-3-(trifluoromethyl)pyridin-2-yl)-5-(2,6-difluoro-4-methoxyphenyl)-1-methyl-3-oxo-2,3-dihydro-1H-pyrazol-4-yl]-4-(difluoromethoxy)benzamide]	3 nM	> 10000 nM
COc1cc(O)c(-c2c(NC(=O)c3ccc(OC(F)F)cc3)c(=O)n(-c3nc(NCCO)ccc3C(F)(F)F)n2C)c(F)c1 [Example 230, 4-(difluoromethoxy)-N-[5-(2-fluoro-6-hydroxy-4-methoxyphenyl)-2-{6-[(2-hydroxyethyl)amino]-3-(trifluoromethyl)pyridin-2-yl}-1-methyl-3-oxo-2,3-dihydro-1H-pyrazol-4-yl]benzamide]	10 nM	> 10000 nM
COc1cc(F)c(-c2c(NC(=O)c3ccc(OC(F)F)cc3)c(=O)n(-c3nc(NC4(CO)CC4)ccc3C(F)(F)F)n2C)c(F)c1 [Example 231, N-[5-(2,6-difluoro-4-methoxyphenyl)-2-(6-{[1-(hydroxymethyl)cyclopropyl]amino}-3-(trifluoromethyl)pyridin-2-yl)-1-methyl-3-oxo-2,3-dihydro-1H-pyrazol-4-yl]-4-(difluoromethoxy)benzamide]	5 nM	> 10000 nM
CNc1ccc(C(F)(F)F)c(-n2c(=O)c(NC(=O)c3ccc(OC(F)F)cc3)c(-c3c(O)cc(OC)cc3F)n2C)n1 [Example 233, 4-(difluoromethoxy)-N-[5-(2-fluoro-6-hydroxy-4-methoxyphenyl)-1-methyl-2-[6-(methylamino)-3-(trifluoromethyl)pyridin-2-yl]-3-oxo-2,3-dihydro-1H-pyrazol-4-yl]benzamide]	8 nM	> 10000 nM
COc1cc(F)c(-c2c(NC(=O)c3ccc(OC(F)F)cc3)c(=O)n(-c3nc(Nc4ncn[nH]4)ccc3C(F)(F)F)n2C)c(F)c1 [Example 234, N-[5-(2,6-difluoro-4-methoxyphenyl)-1-methyl-3-oxo-2-{6-[(1H-1,2,4-triazol-5-yl)amino]-3-(trifluoromethyl)pyridin-2-yl}-2,3-dihydro-1H-pyrazol-4-yl]-4-(difluoromethoxy)benzamide]	3 nM	2900 nM
COCCNc1ccc(C(F)(F)F)c(-n2c(=O)c(NC(=O)c3ccc(OC(F)F)cc3)c(-c3c(F)cc(OC)cc3F)n2C)n1 [Example 235, N-[5-(2,6-difluoro-4-methoxyphenyl)-2-{6-[(2-methoxyethyl)amino]-3-(trifluoromethyl)pyridin-2-yl}-1-methyl-3-oxo-2,3-dihydro-1H-pyrazol-4-yl]-4-(difluoromethoxy)benzamide]	1 nM	> 10000 nM

Other lines, results leading:

EC50 (human FPR2)	EC50 (human FPR1)	SMILES
3 nM	> 10000 nM	COc1cc(F)c(-c2c(NC(=O)c3ccc(OC(F)F)cc3)c(=O)n(-c3nc(NCCO)ccc3C(F)(F)F)n2C)c(F)c1 [Example 225, N-[5-(2,6-difluoro-4-methoxyphenyl)-2-{6-[(2-hydroxyethyl)amino]-3-(trifluoromethyl)pyridin-2-yl}-1-methyl-3-oxo-2,3-dihydro-1H-pyrazol-4-yl]-4-(difluoromethoxy)benzamide]
3 nM	> 5000 nM	CNc1ccc(C(F)(F)F)c(-n2c(=O)c(NC(=O)c3ccc(OC(F)F)cc3)c(-c3c(F)cc(OC)cc3F)n2C)n1 [Example 227, N-[5-(2,6-difluoro-4-methoxyphenyl)-1-methyl-2-[6-(methylamino)-3-(trifluoromethyl)pyridin-2-yl]-3-oxo-2,3-dihydro-1H-pyrazol-4-yl]-4-(difluoromethoxy)benzamide]
5 nM	> 10000 nM	CNC(=O)[C@H](C)Nc1ccc(C(F)(F)F)c(-n2c(=O)c(NC(=O)c3ccc(OC(F)F)cc3)c(-c3c(F)cc(OC)cc3F)n2C)n1 [Example 232, N-[5-(2,6-difluoro-4-methoxyphenyl)-1-methyl-2-(6-{[(1S)-1-(methylcarbamoyl)ethyl]amino}-3-(trifluoromethyl)pyridin-2-yl)-3-oxo-2,3-dihydro-1H-pyrazol-4-yl]-4-(difluoromethoxy)benzamide]
9 nM	> 10000 nM	COc1cc(F)c(-c2c(NC(=O)c3ccc(OC(F)F)cc3)c(=O)n(-c3nc(N[C@H](C)CO)ccc3C(F)(F)F)n2C)c(F)c1 [Example 236, N-[5-(2,6-difluoro-4-methoxyphenyl)-2-(6-{[(2R)-1-hydroxypropan-2-yl]amino}-3-(trifluoromethyl)pyridin-2-yl)-1-methyl-3-oxo-2,3-dihydro-1H-pyrazol-4-yl]-4-(difluoromethoxy)benzamide]
1 nM	> 5000 nM	COc1cc(F)c(-c2c(NC(=O)c3ccc(OC(F)F)cc3)c(=O)n(-c3nc(N[C@@H](C)CO)ccc3C(F)(F)F)n2C)c(F)c1 [Example 237, N-[5-(2,6-difluoro-4-methoxyphenyl)-2-(6-{[(2S)-1-hydroxypropan-2-yl]amino}-3-(trifluoromethyl)pyridin-2-yl)-1-methyl-3-oxo-2,3-dihydro-1H-pyrazol-4-yl]-4-(difluoromethoxy)benzamide]
3 nM	> 10000 nM	CNC(=O)CNc1ccc(C(F)(F)F)c(-n2c(=O)c(NC(=O)c3ccc(OC(F)F)cc3)c(-c3c(F)cc(OC)cc3F)n2C)n1 [Example 238, N-[5-(2,6-difluoro-4-methoxyphenyl)-1-methyl-2-(6-{[(methylcarbamoyl)methyl]amino}-3-(trifluoromethyl)pyridin-2-yl)-3-oxo-2,3-dihydro-1H-pyrazol-4-yl]-4-(difluoromethoxy)benzamide]
